From US20130109581A1, “POSITIVELY CHARGED SPECIES AS BINDING REAGENTS IN THE SEPARATION OF PROTEIN AGGREGATES FROM MONOMERS” (priority 2009, published 2013)
Several values for one entry are separate records, joined by “and”; a condition that tells them apart may be missing. Equal values may be shown once. Entries after “also recorded” stand apart in the source; their conditions may differ.

Columns and labels:
Aβ42 Globulomer = target: T1, Aβ42 Globulomer (Homo sapiens, UniProt P05067); assay: Misfolded Protein Assay, LoD and capture in CSF: globulomer; type: binding; conditions: for LoD: spiked into CSF
T1 construct: beta amyloid (1-42) was monomerized with incubation in hexafluoroisopropanol
T1 sequence (P05067 672-713 limits assumed): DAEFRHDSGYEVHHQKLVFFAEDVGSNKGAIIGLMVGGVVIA
Protocol: (§1) The Ab42 aggregates were prepared as previously described: fibrils were prepared per Stine et al (JBC 2003, 278, p11612), globulomers were prepared per Barghorn et al (J Neurology 2005 95 p834), ADDLs were prepared per Lambert et al (PNAS 1998, 95 p6448), and ASPDs were prepared per Noguchi et al (JBC 2009 284 p32895). Normal CSF was pooled from clinically characterized non-demented patient CSF samples. AD CSF was pooled from clinically-characterized AD patient samples. Alzheimer's Disease Brain Homogenate (ADBH) was prepared by sonication of clinically diagnosed AD patient brain samples in 0.2M.sucrose (1:10 w/v).
(§2) For the capture assay (Misfolded Protein Assay), aliquots of the beads (30 ul) were added to wells of a 96 well plate, followed by 125 ul of sample in 80:20 CSF:TBSTT. The plate was sealed and incubated for 1 h at 37 C with shaking. The plate was washed with TBST and the residual buffer removed. A denaturing solution (0.1 N NaOH) was added to each well and the plate heated to 80 C. for 30 min with shaking. After cooling the plate to RT, a neutralizing buffer (0.12 M NaH2PO3-0.4% TW20,) was added and the plate shaken briefly at RT. The assay was analyzed using the triplex Mesoscale Discovery ELISA kit for Aβ. The Aβ in the samples eluted from the beads were detected per the manufacturer's protocol.
(§3) For the Limit of Detection (LoD) studies, serial dilutions of each aggregate were spiked into CSF and were assayed per the protocol described above. The LoD was defined as 2× over background levels.
(§4) This pattern minors the capture selectivity observed when these species are tested with 3 ul of PSR1 beads and 1 ng/mL of aggregate.

Aβ(1-42) aggregates = target: T2, Aβ(1-42) aggregates (Homo sapiens, UniProt P05067); type: binding
T2 construct: For Aβ(1-42), 10 nL of 10% brain homogenate was added to each well; from tissue; host or cells: Alzheimer's disease patient brain homogenate
T2 sequence (P05067 672-713 limits assumed): as above

Aβ42 ADDL = Aβ42 ADDL (Homo sapiens, UniProt P05067); assay: Misfolded Protein Assay, LoD and capture in CSF: ADDL; type: binding; conditions: for LoD: spiked into CSF
Sequence of Aβ42 ADDL (P05067 672-713 limits assumed): as above
Protocol: as §1, §2, §3, §4

Aβ42 ASPD = target: T3, Aβ42 ASPD (Homo sapiens, UniProt P05067); assay: Misfolded Protein Assay, LoD and capture in CSF: ASPD; type: binding; conditions: for LoD: spiked into CSF
T3 construct: The Ab42 aggregates were prepared as previously described
T3 sequence (P05067 672-713 limits assumed): as above
Protocol: as §1, §2, §3, §4

prion protein = prion protein (Homo sapiens, UniProt P04156)
amylin fibrils = amylin fibrils (Homo sapiens, UniProt P10997); assay: MPA of in vitro synthesized amylin; type: binding; conditions: buffer and plasma; FIG. 45
Sequence of amylin fibrils (P10997 34-70 limits assumed): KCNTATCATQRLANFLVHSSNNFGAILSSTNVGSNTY

tau aggregates = type: binding, human
[1] = target: T4, Aβ40 aggregates in AD CSF (Homo sapiens, UniProt P05067); assay: Discrimination between AD and normal CSF; type: binding; conditions: FIG. 39
T4 construct: from tissue; host or cells: pooled cerebrospinal fluid (normal or AD)
T4 sequence (P05067 672-711 limits assumed): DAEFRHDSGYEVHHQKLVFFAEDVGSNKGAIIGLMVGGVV
Protocol: as §1, §2
For discriminating between AD and normal CSF, pooled normal CSF or pooled Alzheimer's Disease patient CSF, were assayed per the protocol described above.

[2] = target: T5, AA-related moieties (serum amyloid A aggregates) (Mus musculus, UniProt P05367); assay: PSR-1 bead-based capture of AA species from spleen homogenates; type: binding
T5 construct: These experiments indicate that PSR1-coated beads can capture AA-related moieties; from tissue; host or cells: spleen homogenate of mice with induced AA amyloidosis
T5 sequence (P05367 20-94 limits assumed): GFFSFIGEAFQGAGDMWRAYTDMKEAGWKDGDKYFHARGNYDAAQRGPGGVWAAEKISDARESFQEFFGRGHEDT
Protocol: Amyloid enhancing factor (AEF) was extracted from amyloid-laden liver as described earlier, and used for amyloid induction in four different groups of mice. Each mouse received 20 ug of protein extract as an intravenous injection in the tail vein and systemic inflammation was stimulated by concomitant subcutaneous injection of 0.2 ml 1% silver nitrate (AgNO3). Further inflammatory stimuli were given once a week on day 7, 14 and 21. Mice were sacrificed in several time points on day 5, 9, 16 and 23. Control mice received only single silver nitrate injection and were sacrificed 16 hrs later.
10% spleen homogenates were prepared in PBS, […], using an ultra-sound tissue homogenizator. Homogenates were centrifuged at 200×g for 1 min and the supernatants were used for the PSR1 bead-based capture assay. For immunoblotting analysis the PBS-insoluble tissue pellet was solubilised in 8M urea for 24 hrs on a wheel at room temperature.
PSR1-conjugated beads were washed two times with 1 ml of TBS-TT (TBS, 1% TritonX, 1% Tween20) before incubation with 10% spleen homogenate in a total volume of 100 μl TBS-TT for 1 hr at 37° C. and under shaking at 750 rpm. […] 150 ul of eluate was aspirated from the beads and the presence of SAA/AA proteins were analysed using the mouse SAA ELISA from Tridelta Ltd. or by immunoblotting. […]

263K prion infectivity = tested on: 263K prion infectivity; parameters: species or system Tg(SHaPrP) mice; conditions: mouse, in vivo
[3] = 3 ul of beads and 1 ng/mL of aggregate

Substance: Nab-Nab-Nab-Nbn-Nab-Nbn [PSR1]
- capture of Globulomer (Aβ42 Globulomer; [3]): 1267
- LoD (Aβ42 Globulomer): ~140 amol
- LoD (Aβ42 Globulomer; LoD = 2× over background): ~75 pg/mL and 75 pg/mL
- distinguishing control and AD brain homogenates, Abeta (1-42) detected (Aβ(1-42) aggregates): clearly distinguished between control and either vCJD or AD samples
- capture of ADDL (Aβ42 ADDL; [3]): 1219
- LoD (Aβ42 ADDL): ~20 amol
- LoD (Aβ42 ADDL; LoD = 2× over background): ~200 pg/mL and 200 pg/mL
- capture of ASPD (Aβ42 ASPD; [3]): 1096
- LoD (Aβ42 ASPD): ~20 amol
- LoD (Aβ42 ASPD; LoD = 2× over background): ~200 pg/mL and 200 pg/mL
- distinguishing control and vCJD brain homogenates, prion protein detected (prion protein): clearly distinguished between control and either vCJD or AD samples
- binding to amylin fibrils over monomers (amylin fibrils): bind preferentially to in vitro-synthesized amylin fibrils over amylin monomers in both buffer (A) and plasma (B)
- distinguishing control and AD brain homogenates, Tau detected (tau aggregates): clearly distinguished between control and either vCJD or AD samples
- total Tau signal, AD vs normal brain homogenate (tau aggregates): higher signals in the AD samples relative to the normal brain homogenates; also recorded: highest signal
- Aβ40 signal in pooled AD CSF relative to normal pool [1]: higher Aβ40 signal in positive pooled AD CSF relative to unmatched normal pool
- SAA detected in eluates (sandwich ELISA) ([2]; 3 uL PSR1 beads, spleen homogenate with splenic AA vs untreated control): SAA could be detected only in the eluates from the AA-containing sample
- SAA detected in eluates after denaturation of input ([2]; denatured, buffered and undenatured AA-containing samples, FIG. 44): SAA could be detected only in the eluates from undenatured or buffered AA-containing samples
- 125 μl pooled plasma corresponds to 30 μl of a dilution of 263 K hamster brain homogenate (263K prion infectivity): 10^−8 dilution of 263 K and 10^−7 dilution of 263 K
- Attack rate (Clinical TSE/total inoculated) (263K prion infectivity): 100% (8/8) and 50% (2/4) and 100% (4/4) and 81% (13/16)
- Mean incubation period (days) (263K prion infectivity): 74 ± 3 dpi and 76 ± 5 dpi and 94 ± 5 dpi
- capture and transmission of prion infectivity (263K prion infectivity): capture prion infectivity from prion-infected blood samples and transmit it with high efficiency to Tg(SHaPrP) mice
- incubation period (days) (263K prion infectivity): 56, 85 days
- mean incubation times (263K prion infectivity): 74-94 days post inoculation
